Patent US10988474B2, “Compounds acting at multiple prostaglandin receptors giving a general anti-inflammatory response” (ALLERGAN, INC., priority 2011, dated 2021)

Assays:
Format in all cases: cell-based
[1] = molecular target: T1, human prostanoid EP4 receptor (Homo sapiens, UniProt P35408); experiment: FLIPR Ca2+ signaling PG antagonist assay, EP4 stable cell line; settings: HEK-293 EBNA cells, human recombinant EP4 with chimeric Gqs; standard agonist PGE2
T1 construct: expressed in transfected cells
T1 sequence (P35408 whole entry): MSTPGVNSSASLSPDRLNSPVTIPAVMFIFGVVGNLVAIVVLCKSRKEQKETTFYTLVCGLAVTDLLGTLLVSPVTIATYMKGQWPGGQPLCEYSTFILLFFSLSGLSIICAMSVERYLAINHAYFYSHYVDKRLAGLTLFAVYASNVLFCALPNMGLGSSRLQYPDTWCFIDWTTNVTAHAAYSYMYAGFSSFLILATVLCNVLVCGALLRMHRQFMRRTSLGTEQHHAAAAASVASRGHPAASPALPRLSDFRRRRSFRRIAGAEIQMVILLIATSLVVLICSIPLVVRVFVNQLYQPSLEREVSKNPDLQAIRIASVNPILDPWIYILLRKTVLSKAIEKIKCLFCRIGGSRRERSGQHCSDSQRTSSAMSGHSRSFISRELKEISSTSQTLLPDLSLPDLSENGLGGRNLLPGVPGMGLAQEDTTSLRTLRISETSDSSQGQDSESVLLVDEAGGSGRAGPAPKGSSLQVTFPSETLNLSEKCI
Procedure: (§1) The above compounds were tested for PG antagonist activity as follows using human recombinant prostanoid receptor (DP1, EP1-4, FP, IP and TP) stable cell lines: In order to measure the response of Gs and Gi coupled prostanoid receptors as a Ca^2+ signal, chimeric G protein cDNAs were used. Stable cell lines over-expressing human prostanoid DP1, EP1-4, FP, IP, and TP receptors were established as follows:
(§2) Briefly, human prostanoid DP1, EP2, and EP4 receptor cDNAs were co-transfected with chimeric Gqs cDNA containing a haemagglutanin (HA) epitope; human prostanoid EP3 receptors were co-transfected with chimeric Gqi-HA; human EP1, FP, IP, and TP receptor cDNAs were expressed with no exogenous G-proteins. Gqs and Gqi chimeric cDNAs (Molecular Devices, Sunnyvale, Calif., U.S.A.), as well as cDNAs of prostanoid receptors, were cloned into a pCEP4 vector with a hygromycin B selection marker. Transfection into HEK-293 EBNA (Epstein-Barr virus nuclear antigen) cells was achieved by the FuGENE 6 transfection Reagent (Roche Applied Science, Indianapolis, Ind., USA). Stable transfectants were selected according to hygromycin resistance. Because Gqs and Gqi contained an HA epitope, G-protein expression was detected by Western blotting analysis using anti-mouse HA monoclonal antibody and horseradish peroxidase (HRP)-conjugated secondary antibody, while functional expression of prostanoid receptors was detected by FLIPR screening (Matias et al., 2004). These stable cell lines were validated using previously published antagonists at 10 μM against serial dilutions of standard agonists by FLIPR functional assays for Ca^2+ Signaling (as described below).
(§3) Ca^2+ signaling studies were performed using a FLIPR TETRA system (Molecular Devices, Sunnyvale, Calif., USA) in the 384-format. This is a high-throughput instrument for cell-based assays to monitor Ca^2+ signaling associated with GPCRs and ion channels. Cells were seeded at a density of 5×10^4 cells/well in BioCoat poly-D-lysine coated, black wall, clear bottom 384-well plates (BD Biosciences, Franklin lakes, NJ, USA) and allowed to attach overnight in an incubator at 37° C. The cells were then washed twice with HBSS-HEPES buffer (Hanks' balanced salt solution without bicarbonate and phenol red, 20 mM HEPES, pH 7.4) using an ELx405 Select CW Microplate Washer (BioTek, Winooski, Vt., USA). After 60 min of dye-loading in the dark using the Ca^2+-sensitive dye Fluo-4AM (Invitrogen, Carlsbad, Calif., USA), at a final concentration of 2×10^−6M, the plates were washed 4 times with HBSS-HEPES buffer to remove excess dye and leaving 50 μl of buffer in each well. The plates were then placed in the FLIPR TETRA instrument and allowed to equilibrate at 37° C. Compounds were added in a 25 μl volume to each well to give final concentrations of 0.1 μM, 0.3 μM, 1 μM, 3 μM, 10 μM, and 30 μM; or 0.067 μM, 0.1 μM, 0.2 μM, 0.3 μM, 0.67 μM, and 1 μM for cells over-expressing TP receptors. After 4.5 minutes, a 7-point serial dilution of the standard agonist for the corresponding receptor, in a 25 μl volume was injected at the final concentrations from 10^−11M to 10^−5M in 10-fold serial dilution increments for cells expressing human recombinant DP1, EP1, EP2, EP3, EP4, FP, and IP receptors. The dose range for the standard agonist for human recombinant TP receptors was from 10^−12M to 10^−6M. HBSS-HEPES buffer was used as the negative control for the standard agonists. Cells were excited with LED (light emitting diode) excitation at 470-495 nm and emission was measured through an emission filter at 515-575 nm. Assay plates were read for 3.5 minutes using the FLIPR^TETRA. The peak increase in fluorescence intensity was recorded for each well. On each plate, negative controls, dose response of positive controls, and co-treatments of antagonist-agonist for each dose were in triplicates. Standard agonists were as follows: DP=BW 245C, EP1-EP4=PGE2, FP=17-phenyl-PGF2α, IP=Cicaprost, and TP=U-46619. […]

[2] = molecular target: T2, human prostanoid IP receptor (Homo sapiens, UniProt P43119); experiment: FLIPR Ca2+ signaling PG antagonist assay, IP stable cell line; settings: HEK-293 EBNA cells, human recombinant IP, no exogenous G-protein; standard agonist Cicaprost
T2 construct: expressed in transfected cells
T2 sequence (P43119 whole entry): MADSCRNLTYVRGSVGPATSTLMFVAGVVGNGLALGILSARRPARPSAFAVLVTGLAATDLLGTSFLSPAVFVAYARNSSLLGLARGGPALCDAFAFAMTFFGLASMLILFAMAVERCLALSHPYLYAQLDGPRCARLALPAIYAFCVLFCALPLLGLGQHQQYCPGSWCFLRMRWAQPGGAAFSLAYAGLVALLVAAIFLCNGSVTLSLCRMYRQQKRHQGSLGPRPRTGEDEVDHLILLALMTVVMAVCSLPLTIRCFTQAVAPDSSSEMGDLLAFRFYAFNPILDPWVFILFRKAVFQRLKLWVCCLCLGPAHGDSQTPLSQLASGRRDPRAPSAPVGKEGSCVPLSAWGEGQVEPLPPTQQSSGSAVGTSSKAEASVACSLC
Outline: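 HEK-293 EBNA stable lines; EP2 co-expressed with chimeric Gqs, EP1/IP/TP with no exogenous G protein. Fluo-4AM-loaded cells pretreated 4.5 min at 37 °C with compound (0.1–30 μM; TP 0.067–1 μM), then standard agonist (PGE2, cicaprost, U-46619) 10^−11–10^−5 M (TP 10^−12–10^−6 M); peak fluorescence read 3.5 min, nonlinear regression.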

[3] = molecular target: T3, human prostanoid EP1 receptor (Homo sapiens, UniProt P34995); experiment: FLIPR Ca2+ signaling PG antagonist assay, EP1 stable cell line; settings: HEK-293 EBNA cells, human recombinant EP1, no exogenous G-protein; standard agonist PGE2
T3 construct: expressed in transfected cells
T3 sequence (P34995 1-402): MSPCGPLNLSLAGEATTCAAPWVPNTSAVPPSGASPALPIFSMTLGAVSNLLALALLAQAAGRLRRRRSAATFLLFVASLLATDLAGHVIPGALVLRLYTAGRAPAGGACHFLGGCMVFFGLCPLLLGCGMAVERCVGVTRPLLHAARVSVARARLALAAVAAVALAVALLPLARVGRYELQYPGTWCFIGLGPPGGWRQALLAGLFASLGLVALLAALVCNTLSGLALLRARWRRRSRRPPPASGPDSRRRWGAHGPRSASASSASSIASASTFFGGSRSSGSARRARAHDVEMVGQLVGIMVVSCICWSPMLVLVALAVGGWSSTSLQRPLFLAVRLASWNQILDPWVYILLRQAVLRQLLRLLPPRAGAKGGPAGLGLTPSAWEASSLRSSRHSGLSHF
Procedure: as §1, §2, §3

[4] = molecular target: T4, human prostanoid EP2 receptor (Homo sapiens, UniProt P43116); experiment: FLIPR Ca2+ signaling PG antagonist assay, EP2 stable cell line; settings: HEK-293 EBNA cells, human recombinant EP2 with chimeric Gqs; standard agonist PGE2
T4 construct: expressed in transfected cells
T4 sequence (P43116 whole entry): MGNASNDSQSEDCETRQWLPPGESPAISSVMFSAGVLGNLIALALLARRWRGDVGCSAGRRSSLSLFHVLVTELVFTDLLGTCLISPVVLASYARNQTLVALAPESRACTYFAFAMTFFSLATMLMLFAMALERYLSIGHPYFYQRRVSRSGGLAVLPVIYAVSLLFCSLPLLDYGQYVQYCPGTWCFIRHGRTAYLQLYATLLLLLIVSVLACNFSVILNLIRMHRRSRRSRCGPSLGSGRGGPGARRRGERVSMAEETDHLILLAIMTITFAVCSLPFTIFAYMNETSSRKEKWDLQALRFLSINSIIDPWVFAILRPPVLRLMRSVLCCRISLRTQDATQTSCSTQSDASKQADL
Procedure: as §1, §2, §3

[5] = molecular target: T5, human prostanoid DP1 receptor (Homo sapiens, UniProt Q13258); experiment: FLIPR Ca2+ signaling PG antagonist assay, DP1 stable cell line; settings: HEK-293 EBNA cells, human recombinant DP1 with chimeric Gqs; standard agonist BW 245C; read-out: DP (Kb, PG antagonist activity)
T5 construct: expressed in transfected cells
T5 sequence (Q13258 1-359): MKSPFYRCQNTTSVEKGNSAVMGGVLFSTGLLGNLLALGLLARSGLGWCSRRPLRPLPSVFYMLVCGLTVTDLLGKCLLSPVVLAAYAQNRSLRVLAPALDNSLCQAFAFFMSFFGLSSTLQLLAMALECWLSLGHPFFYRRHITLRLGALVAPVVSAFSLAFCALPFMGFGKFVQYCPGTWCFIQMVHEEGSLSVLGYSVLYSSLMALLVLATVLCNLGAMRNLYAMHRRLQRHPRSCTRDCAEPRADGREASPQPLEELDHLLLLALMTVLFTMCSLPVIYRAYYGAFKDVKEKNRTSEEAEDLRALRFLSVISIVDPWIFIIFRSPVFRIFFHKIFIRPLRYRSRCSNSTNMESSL
Outline: (§4)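 Stable HEK-293 EBNA lines (DP1 with chimeric Gqs, EP3 with Gqi, EP1 and FP without exogenous G protein) were Fluo-4AM-loaded and pretreated 4.5 min at 37 °C with compound (0.1–30 μM). Agonist (BW 245C for DP1, PGE2 for EP1/EP3, 17-phenyl-PGF2α for FP) was then added at 10^−11–10^−5 M. Peak Ca2+ fluorescence was taken relative to agonist at 10^−6 M.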

[6] = molecular target: T6, human prostanoid FP receptor (Homo sapiens, UniProt P43088); experiment: FLIPR Ca2+ signaling PG antagonist assay, FP stable cell line; settings: HEK-293 EBNA cells, human recombinant FP, no exogenous G-protein; standard agonist 17-phenyl-PGF2α
T6 construct: expressed in transfected cells
T6 sequence (P43088 whole entry): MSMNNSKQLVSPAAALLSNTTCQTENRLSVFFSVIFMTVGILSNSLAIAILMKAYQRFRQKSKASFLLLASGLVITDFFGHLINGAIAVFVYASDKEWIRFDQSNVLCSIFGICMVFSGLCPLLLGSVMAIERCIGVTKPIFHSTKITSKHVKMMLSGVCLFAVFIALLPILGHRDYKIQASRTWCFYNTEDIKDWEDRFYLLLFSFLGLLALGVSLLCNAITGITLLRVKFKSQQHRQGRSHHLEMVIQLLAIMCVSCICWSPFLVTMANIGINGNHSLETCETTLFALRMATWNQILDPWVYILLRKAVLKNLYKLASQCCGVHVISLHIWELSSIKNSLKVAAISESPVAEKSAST
Outline: as §4

Row | SMILES | Kb [1] [nM] | Kb [2] [nM] | Kb [3] [nM] | Kb [4] [nM] | Kb [5] [nM] | Kb [6] [nM]
1 | Cc1nn(Cc2cc(OC(F)(F)F)ccc2OCC(C)C)c2ccc(C(=O)O)cc12 [Example 22, 1-(2-Isobutoxy-5-Trifluoromethoxy-Benzyl)-3-Methyl-1H-Indazole-5-Carboxylic Acid] | 350 | 6000 | 16 | ≥ 10000 | 1700 | 140
2 | CC(C)COc1ccc(Br)cc1Cn1cc2cc(C(=O)O)ccc2n1 [Example 17, 2-(5-Bromo-2-Isobutoxy-Benzyl)-2H-Indazole-5-Carboxylic Acid] | 600 | ≥ 10000 | 40 | ≥ 10000 | 3500 | 2300
3 | O=C(O)c1ccc2c(cnn2Cc2cc(Br)ccc2OCC2CCCC2)c1 [Example 14, 1-(5-Bromo-2-Cyclopentylmethoxy-Benzyl)-1H-Indazole-5-Carboxylic Acid] | 15 | 340 | 20 | 400 | 600 | 30
4 | CCc1nn(Cc2cc(Br)ccc2OCC(C)C)c2ccc(C(=O)O)cc12 [Example 64, 1-(5-Bromo-2-Isobutoxy-Benzyl)-3-Ethyl-1H-Indazole-5-Carboxylic Acid] | 50 | 700 | 5 | 3100 | 260 | 190
5 | CCC(CC)COc1ccc(Br)cc1Cn1ccc2ccc(C(=O)O)cc21 [Example 70, 1-[5-Bromo-2-(2-Ethyl-Butoxy)-Benzyl]-1H-Indole-6-Carboxylic Acid] | 6000 | ≥ 10000 | 200 | ≥ 10000 | 2200 | ≥ 10000
6 | CC(C)COc1ccc(Cl)cc1Cn1cc2c(C(=O)O)cccc2n1 [Example 37, 2-(5-Chloro-2-Isobutoxy-Benzyl)-2H-Indazole-4-Carboxylic Acid] | 700 | ≥ 10000 | 480 | ≥ 10000 | 1300 | ≥ 10000
7 | CC(C)COc1ccc(OC(F)F)cc1Cn1ncc2cc(C(=O)O)ccc21 [Example 56, 1-(5-Difluoromethoxy-2-Isobutoxy-Benzyl)-1H-Indazole-5-Carboxylic Acid] | 150 | 4100 | 24 | ≥ 10000 | 1800 | 24
8 | CCC(CC)COc1ccc(Cl)cc1Cn1ncc2c(C(=O)O)cccc21 [Example 38, 1-[5-Chloro-2-(2-Ethyl-Butoxy)-Benzyl]-1H-Indazole-4-Carboxylic Acid] | 400 | 60 | 70 | 2100 | 630 | 1100
9 | CC(C)COc1cc(Cl)c(Cl)cc1Cn1ncc2cc(C(=O)O)ccc21 [Example 49, 1-(4,5-Dichloro-2-Isobutoxy-Benzyl)-1H-Indazole-5-Carboxylic Acid] | 50 | 3200 | 540 | ≥ 10000 | 3500 | 70
10 | Cc1cn(Cc2cc(OC(F)(F)F)ccc2OCC(C)C)c2ccc(C(=O)O)cc12 [Example 75, 1-(2-Isobutoxy-5-Trifluoromethoxy-Benzyl)-3-Methyl-1H-Indole-5-Carboxylic Acid] | 280 | 4400 | 20 | 6400 | 1300 | 330
11 | CCC(CC)COc1ccc(Cl)cc1Cn1ncc2cc(C(=O)O)ccc21 [Example 2, 1-[5-Chloro-2-(2-Ethyl-Butoxy)-Benzyl]-1H-Indazole-5-Carboxylic ACID] | 20 | 1100 | 140 | 2900 | 1300 | 160
12 | Cc1nn(Cc2cc(Br)ccc2OCC(C)C)c2ccc(C(=O)O)cc12 [Example 21, 1-(5-Bromo-2-Isobutoxy-Benzyl)-3-Methyl-1H-Indazole-5-Carboxylic Acid] | 70 | 900 | 14 | 3500 | 100 | 30
13 | O=C(O)c1ccc2c(cnn2Cc2cc(C(F)(F)F)ccc2OCC2CCCC2)c1 [Example 33, 1-(2-Cyclopentylmethoxy-5-Trifluoromethyl-Benzyl)-1H-Indazole-5-Carboxylic Acid] | 30 | 400 | 70 | 2600 | 350 | 70
14 | CC(C)COc1ccc(Br)cc1Cn1ccc2cc(C(=O)O)ccc21 [Example 67, 1-(5-Bromo-2-Isobutoxy-Benzyl)-1H-Indole-5-Carboxylic Acid] | 340 | ≥ 10000 | 60 | ≥ 10000 | ≥ 10000 | 100
